Assays:
[1] = test system: α-Glucosidase from Saccharomyces cerevisiae; assay: α-glucosidase inhibition assay (pNPG substrate); format: biochemical; conditions: for % inhibition R1: replicate 1; for % inhibition R3: replicate 3; for % Inhibition: fixed concentration of 100 µM, mean of triplicate (± SD); for IC50: dose-response, mean ± SD; for Observation (activity level, Table S9) / Observation (inhibition level, Table S7): words, based on % inhibition at 100 µM
Method: The α-glucosidase inhibitory activity of 4a–j was evaluated using a standard enzymatic assay. α-Glucosidase from Saccharomyces cerevisiae was employed as the enzyme source, and p-nitrophenyl-α-D-glucopyranoside (pNPG) served as the substrate. The assay was conducted in a 96-well microplate format at 37 °C in 50 mM phosphate buffer (pH 6.8). Briefly, 10 µL of the test compound (dissolved in DMSO) at various concentrations was mixed with 20 µL of the enzyme solution (1 U/mL) and 50 µL of phosphate buffer. The reaction was initiated by adding 20 µL of pNPG (5 mM), and the mixture was incubated for 30 min. The reaction was terminated by adding 50 µL of 0.1 M Na2CO3, and the absorbance of the released p-nitrophenol was measured at […] using a microplate reader. […] All experiments were performed in triplicate, and the results were expressed as mean ± standard deviation (SD). Statistical significance was evaluated using one-way ANOVA followed by Tukey’s post hoc test.

α-glucosidase = target: α-glucosidase; parameters: method as in PMID 26398141; conditions: cited from earlier work

SMILES	% inhibition R1 ([1]; 100 µM)	% inhibition R3 ([1]; 100 µM)	% Inhibition [1]	IC50 [1]	Observation (activity level, Table S9) [1]	Observation (inhibition level, Table S7) [1]	IC50 (α-glucosidase)	% Inhibition ([1]; 100 µM)
C[C@H]1O[C@H](O[C@H]2[C@H](O)[C@@H](O)[C@@H](O[C@H]3[C@H](O)[C@@H](O)C(O)O[C@@H]3CO)O[C@@H]2CO)[C@H](O)[C@@H](O)[C@@H]1N[C@H]1C=C(CO)[C@@H](O)[C@H](O)[C@H]1O (stereo partly shown) [Acarbose, acarbose, reference compound]	84.457%	85.609%	84.66 ± 0.71%					
COc1ccc(/C=N/NC(=O)c2cc3cc(OC)ccc3[nH]2)c(O)c1 [4e, (E)-N’-(2-Hydroxy-4-methoxybenzylidene)-5-methoxy-1H-indole-2-carbohydrazide]	87.826%	81.926%	82.21 ± 4.47%	16.42 ± 0.08 µM	High activity	Good inhibition		
COc1ccc2[nH]c(C(=O)N/N=C/c3ccccc3)cc2c1 [4j, (E)-N’-Benzylidene-5-methoxy-1H-indole-2-carbohydrazide]	56.471%	49.039%	53.23 ± 3.11%		Moderate activity	Moderate inhibition		
O=C(N/N=C/c1cc(O)c(O)c(O)c1)c1cc2ccccc2[nH]1 [(E)-N’-(3,4,5-Trihydroxybenzylidene)-1H-indole-2-carbohydrazide]							2.3 µM	
COc1ccc2[nH]c(C(=O)N/N=C/c3nccs3)cc2c1 [4a, (E)-5-Methoxy-N’-(thiazol-2-ylmethylene)-1H-indole-2-carbohydrazide]	41.141%	33.393%	31.75 ± 8.42%		Low activity	Low inhibition		
COc1ccc2[nH]c(C(=O)N/N=C/c3ccccc3F)cc2c1 [4f, (E)-N’-(2-Fluorobenzylidene)-5-methoxy-1H-indole-2-carbohydrazide]	54.885%	51.513%	50.65 ± 3.86%		Moderate activity	Moderate inhibition		
COc1ccc2[nH]c(C(=O)N/N=C/c3ccc(O)c([N+](=O)[O-])c3)cc2c1 [4d, (E)-N’-(4-Hydroxy-3-nitrobenzylidene)-5-methoxy-1H-indole-2-carbohydrazide]	37.425%	28.540%	27.97 ± 7.96%		Low activity	Low inhibition		
COc1ccc2[nH]c(C(=O)N/N=C/c3cccnc3)cc2c1 [4b, (E)-5-Methoxy-N’-(pyridin-3-ylmethylene)-1H-indole-2-carbohydrazide]	34.129%	27.265%			Low activity	Low inhibition		25.37%
COc1ccc2[nH]c(C(=O)N/N=C/c3ccc4ccccc4c3)cc2c1 [4i, (E)-5-Methoxy-N’-(naphthalen-2-ylmethylene)-1H-indole-2-carbohydrazide]	84.106%	84.052%	82.73 ± 1.90%	19.5 ± 1.37 µM	High activity	Good inhibition		
COc1ccc2[nH]c(C(=O)N/N=C/c3cccc(Br)c3)cc2c1 [4g, (E)-N’-(3-Bromobenzylidene)-5-methoxy-1H-indole-2-carbohydrazide]	92.817%	90.041%	91.06 ± 1.25%	10.89 ± 0.08 µM	High activity	High inhibition		
COc1ccc2[nH]c(C(=O)N/N=C/c3ccc(O)cc3)cc2c1 [4c, (E)-N’-(4-Hydroxybenzylidene)-5-methoxy-1H-indole-2-carbohydrazide]	39.907%	37.768%	32.51 ± 8.99%		Moderate activity	Moderate inhibition		
COc1ccc2[nH]c(C(=O)N/N=C/c3ccc([N+](=O)[O-])cc3)cc2c1 [4h, (E)-5-Methoxy-N’-(4-nitrobenzylidene)-1H-indole-2-carbohydrazide]	90.888%	88.949%	89.11 ± 1.39%	14.5 ± 0.76 µM	High activity	High inhibition		

Source: publication PMC12430303, “Design and Evaluation of Indole-Based Schiff Bases as α-Glucosidase Inhibitors: CNN-Enhanced Docking, MD Simulations, ADMET Profiling, and SAR Analysis” (Molecules, 2025)
